Data as given in patent publication US12139520B2 (priority 2020, dated 2024).
Numbered stars: 1 amine (or outer) side, 2 acyl side, 3 side chain; on linkers, the order of the positions; unused ones are H or OH. Bridge positions count the residues as written; N and C are the ends. Square brackets hold non-standard residues; d marks the D form. Peptide text beside a SMILES is read from it. * marks the point of attachment. C20 diacid = O=C(O)CCCCCCCCCCCCCCCCCCC(=O)*; γGlu = O=C(O)[C@H](CCC(=O)[*:2])N[*:1]; Hyp = O=C(O)[C@@H]1C[C@@H](O)CN1

How the values were obtained:
hAMY3 receptor = molecular target: T1, hAMY3 receptor (Homo sapiens, UniProt O60896+P30988); assay: cAMP assay for in vitro receptor activation, hAMY3-R; assay type: cell-based; conditions: cAMP assay, hAMY3 receptor; read-out: hAMY3R EC50
T1 sequence (P30988 25-474): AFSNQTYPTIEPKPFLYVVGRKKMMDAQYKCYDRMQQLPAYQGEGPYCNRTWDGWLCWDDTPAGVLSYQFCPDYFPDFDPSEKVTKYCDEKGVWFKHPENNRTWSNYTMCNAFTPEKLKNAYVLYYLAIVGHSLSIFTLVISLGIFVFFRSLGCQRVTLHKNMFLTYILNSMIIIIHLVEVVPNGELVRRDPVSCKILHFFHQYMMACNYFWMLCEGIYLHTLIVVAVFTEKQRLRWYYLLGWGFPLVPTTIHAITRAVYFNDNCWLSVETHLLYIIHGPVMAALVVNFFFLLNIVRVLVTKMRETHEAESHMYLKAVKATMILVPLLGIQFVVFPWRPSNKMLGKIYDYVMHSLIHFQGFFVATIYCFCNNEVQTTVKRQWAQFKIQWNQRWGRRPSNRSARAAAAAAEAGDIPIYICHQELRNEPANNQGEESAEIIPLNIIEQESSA
T1 sequence (O60896 24-148 partner): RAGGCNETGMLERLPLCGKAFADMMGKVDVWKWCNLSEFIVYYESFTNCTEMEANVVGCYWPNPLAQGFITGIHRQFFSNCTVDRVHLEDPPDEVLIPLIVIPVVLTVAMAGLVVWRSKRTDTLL
In short: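 Graded compound concentrations were applied for 30 min at room temperature to stably hAMY3-expressing cells in DPBS, 0.05% casein, 0.5 mM IBMX; cAMP detected by TR-FRET.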

hAM1 receptor = hAM1 receptor (Homo sapiens, UniProt O60895+Q16602); assay: cAMP assay for in vitro receptor activation, hAM1-R; assay type: cell-based; conditions: cAMP assay, hAM1 receptor; read-out: hAM1R EC50
hAM1 receptor, sequence (Q16602 23-461): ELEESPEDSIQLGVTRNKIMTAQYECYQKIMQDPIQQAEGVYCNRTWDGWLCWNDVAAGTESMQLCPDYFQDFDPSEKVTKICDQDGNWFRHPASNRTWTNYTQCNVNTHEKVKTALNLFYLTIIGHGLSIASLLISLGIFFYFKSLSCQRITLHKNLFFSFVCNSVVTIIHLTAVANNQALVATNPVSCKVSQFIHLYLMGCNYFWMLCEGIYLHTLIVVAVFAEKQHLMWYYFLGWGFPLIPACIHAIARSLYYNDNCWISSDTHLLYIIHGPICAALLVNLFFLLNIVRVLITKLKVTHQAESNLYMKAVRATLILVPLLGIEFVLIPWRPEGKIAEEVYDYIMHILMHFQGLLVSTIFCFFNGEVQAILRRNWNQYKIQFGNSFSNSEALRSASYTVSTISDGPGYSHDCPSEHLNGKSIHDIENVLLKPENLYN
hAM1 receptor, sequence (O60895 43-175 partner): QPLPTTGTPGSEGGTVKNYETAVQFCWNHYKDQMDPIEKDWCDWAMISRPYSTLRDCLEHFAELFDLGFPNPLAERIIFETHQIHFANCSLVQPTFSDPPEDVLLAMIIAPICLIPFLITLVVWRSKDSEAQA
In short: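 A subcloned monoclonal line stably expressing hAM1 receptor is thawed and plated at 8000 cells/well. The assay buffer is DPBS with 0.05% casein and 0.5 mM IBMX, and receptor activation is followed by cAMP levels.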

For `CC[C@H](C)[C@H](NC(=O)[C@H](CCC(N)=O)NC(=O)[C@H](CCC(=O)O)NC(=O)[C@H](C)NC(=O)[C@H](CC(C)C)NC(=O)[C@H](CCCNC(=N)N)NC(=O)[C@H](CCC(N)=O)NC(=O)[C@@H](NC(=O)[C@@H](NC(=O)[C@@H]1CSSC[C@H](NC(=O)[C@H](CCCCN)NC(=O)CC[C@H](NC(=O)CCCCCCCCCCCCCCCCCCC(=O)O)C(=O)O)C(=O)N[C@@H](CC(N)=O)C(=O)N[C@@H]([C@@H](C)O)C(=O)N[C@@H](C)C(=O)N[C@@H]([C@@H](C)O)C(=O)N1)[C@@H](C)O)C(C)C)C(=O)N[C@@H](Cc1ccc(O)cc1)C(=O)N[C@@H](CCC(N)=O)C(=O)N[C@@H](Cc1ccccc1)C(=O)N[C@H](C(=O)N[C@@H](CC(=O)O)C(=O)N[C@@H](CCCCN)C(=O)N[C@@H](CC(=O)O)C(=O)N[C@@H](CCCCN)C(=O)N[C@@H](CC(=O)O)C(=O)N[C@@H](CCC(N)=O)C(=O)N[C@H](C(=O)N[C@@H](C)C(=O)N1CCC[C@H]1C(=O)N1CCC[C@H]1C(=O)N[C@H](C(=O)N[C@@H](CC(N)=O)C(=O)N[C@H](C(=O)NCC(=O)N[C@@H](CO)C(=O)N[C@@H](CC(N)=O)C(=O)NCC(=O)N1C[C@H](O)C[C@H]1C(N)=O)C(C)C)[C@@H](C)O)C(C)C)[C@@H](C)O` [compound 100] ({C20 diacid-γGlu}-KCNTATCTVQRLAEQIYQFTDKDKDQVAPPTNVGSNG[Hyp]-NH2; disulfide 2-7), the EC50 (hAMY3 receptor) was 0.017 nM and the EC50 (hAM1 receptor) was greater than 5 µM.
With `CC[C@H](C)[C@H](NC(=O)[C@H](CCC(N)=O)NC(=O)[C@H](CCC(=O)O)NC(=O)[C@H](C)NC(=O)[C@H](CC(C)C)NC(=O)[C@H](CCCNC(=N)N)NC(=O)[C@H](CCC(N)=O)NC(=O)[C@@H](NC(=O)[C@@H](NC(=O)[C@@H]1CSSC[C@H](NC(=O)[C@@H](N)CCCCN)C(=O)N[C@@H](CC(N)=O)C(=O)N[C@@H](C)C(=O)N[C@@H](C)C(=O)N[C@@H]([C@@H](C)O)C(=O)N1)[C@@H](C)O)C(C)C)C(=O)N[C@@H](Cc1ccc(O)cc1)C(=O)N[C@@H](CCC(N)=O)C(=O)N[C@@H](Cc1ccccc1)C(=O)N[C@H](C(=O)N[C@@H](CC(=O)O)C(=O)N[C@@H](CCCCN)C(=O)N[C@@H](CC(=O)O)C(=O)N[C@@H](CCCCN)C(=O)N[C@@H](CC(=O)O)C(=O)N[C@@H](CC(N)=O)C(=O)N[C@H](C(=O)N[C@@H](C)C(=O)N1CCC[C@H]1C(=O)N1CCC[C@H]1C(=O)N[C@H](C(=O)N[C@@H](CC(N)=O)C(=O)N[C@H](C(=O)NCC(=O)N[C@@H](CO)C(=O)N[C@@H](CC(N)=O)C(=O)NCC(=O)N1C[C@H](O)C[C@H]1C(N)=O)C(C)C)[C@@H](C)O)C(C)C)[C@@H](C)O` [compound 101] (H-KCNAATCTVQRLAEQIYQFTDKDKDNVAPPTNVGSNG[Hyp]-NH2; disulfide 2-7; N-terminus assumed) the EC50 (hAMY3 receptor) was 0.017 nM and the EC50 (hAM1 receptor) was greater than 5 µM.
With `CC[C@H](C)[C@H](NC(=O)[C@H](CCC(N)=O)NC(=O)[C@H](Cc1c[nH]cn1)NC(=O)[C@H](C)NC(=O)[C@H](CC(C)C)NC(=O)[C@H](CCCNC(=N)N)NC(=O)[C@H](CCC(N)=O)NC(=O)[C@@H](NC(=O)[C@@H](NC(=O)[C@@H]1CSSC[C@H](NC(=O)[C@@H](N)CCCCN)C(=O)N[C@@H](CC(N)=O)C(=O)N[C@@H]([C@@H](C)O)C(=O)N[C@@H](C)C(=O)N[C@@H]([C@@H](C)O)C(=O)N1)[C@@H](C)O)C(C)C)C(=O)N[C@@H](Cc1ccc(O)cc1)C(=O)N[C@@H](CCC(N)=O)C(=O)N[C@@H](Cc1ccccc1)C(=O)N[C@H](C(=O)N[C@@H](CC(=O)O)C(=O)N[C@@H](CCCCN)C(=O)N[C@@H](CC(=O)O)C(=O)N[C@@H](CCCCN)C(=O)N[C@@H](CC(=O)O)C(=O)N[C@@H](CC(N)=O)C(=O)N[C@H](C(=O)N[C@@H](C)C(=O)N1CCC[C@H]1C(=O)N[C@@H](CCCNC(=N)N)C(=O)N[C@H](C(=O)N[C@@H](CCC(=O)O)C(=O)N[C@H](C(=O)NCC(=O)N[C@@H](CO)C(=O)N[C@@H](CC(N)=O)C(=O)NCC(=O)N[C@@H](Cc1ccc(O)cc1)C(N)=O)C(C)C)[C@@H](C)O)C(C)C)[C@@H](C)O` [compound 102] (H-KCNTATCTVQRLAHQIYQFTDKDKDNVAPRTEVGSNGY-NH2; disulfide 2-7; N-terminus assumed) the EC50 (hAMY3 receptor) was 0.018 nM and the EC50 (hAM1 receptor) was greater than 5 µM.
For `CC[C@H](C)[C@H](NC(=O)[C@H](CCC(N)=O)NC(=O)[C@H](Cc1c[nH]cn1)NC(=O)[C@H](C)NC(=O)[C@H](CC(C)C)NC(=O)[C@H](CCCNC(=N)N)NC(=O)[C@@H](NC(=O)[C@@H](NC(=O)[C@@H](NC(=O)[C@@H]1CSSC[C@H](NC(=O)[C@H](CCCCN)NC(=O)CC[C@H](NC(=O)CCCCCCCCCCCCCCCCCCC(=O)O)C(=O)O)C(=O)N[C@@H](CC(N)=O)C(=O)N[C@@H]([C@@H](C)O)C(=O)N[C@@H](C)C(=O)N[C@@H]([C@@H](C)O)C(=O)N1)[C@@H](C)O)C(C)C)C(C)C)C(=O)N[C@@H](Cc1ccc(O)cc1)C(=O)N[C@@H](CCC(N)=O)C(=O)N[C@@H](Cc1ccccc1)C(=O)N[C@H](C(=O)N[C@@H](CC(=O)O)C(=O)N[C@@H](CCCCN)C(=O)N[C@@H](CC(=O)O)C(=O)N[C@@H](CCCCN)C(=O)N[C@@H](CC(=O)O)C(=O)N[C@@H](CC(N)=O)C(=O)N[C@H](C(=O)N[C@@H](C)C(=O)N1CCC[C@H]1C(=O)N1CCC[C@H]1C(=O)N[C@H](C(=O)N[C@@H](CC(N)=O)C(=O)N[C@H](C(=O)NCC(=O)N[C@@H](CO)C(=O)N[C@@H](CC(N)=O)C(=O)NCC(=O)N1C[C@H](O)C[C@H]1C(N)=O)C(C)C)[C@@H](C)O)C(C)C)[C@@H](C)O` [compound 103] ({C20 diacid-γGlu}-KCNTATCTVVRLAHQIYQFTDKDKDNVAPPTNVGSNG[Hyp]-NH2; disulfide 2-7), the EC50 (hAMY3 receptor) was 0.018 nM and the EC50 (hAM1 receptor) was greater than 5 µM.
Molecule `CC[C@H](C)[C@H](NC(=O)[C@H](CCC(N)=O)NC(=O)[C@H](Cc1c[nH]cn1)NC(=O)[C@H](C)NC(=O)[C@H](CC(C)C)NC(=O)[C@H](CCCNC(=N)N)NC(=O)[C@H](CCC(N)=O)NC(=O)[C@@H](NC(=O)[C@@H](NC(=O)[C@@H]1CSSC[C@H](NC(=O)[C@H](CCCCN)NC(=O)CC[C@H](NC(=O)CCCCCCCCCCCCCCCCCCC(=O)O)C(=O)O)C(=O)N[C@@H](CC(N)=O)C(=O)N[C@@H]([C@@H](C)O)C(=O)N[C@@H](C)C(=O)N[C@@H]([C@@H](C)O)C(=O)N1)[C@@H](C)O)C(C)C)C(=O)N[C@@H](Cc1ccc(O)cc1)C(=O)N[C@@H](CCC(N)=O)C(=O)N[C@@H](Cc1ccccc1)C(=O)N[C@@H](Cc1ccc(O)cc1)C(=O)N[C@@H](CC(=O)O)C(=O)N[C@@H](CCCCN)C(=O)N[C@@H](CC(=O)O)C(=O)N[C@@H](CCCCN)C(=O)N[C@@H](CC(=O)O)C(=O)N[C@@H](CC(N)=O)C(=O)N[C@H](C(=O)N[C@@H](C)C(=O)N1CCC[C@H]1C(=O)N1CCC[C@H]1C(=O)N[C@H](C(=O)N[C@@H](CC(N)=O)C(=O)N[C@H](C(=O)NCC(=O)N[C@@H](CO)C(=O)N[C@@H](CC(N)=O)C(=O)NCC(=O)N1C[C@H](O)C[C@H]1C(N)=O)C(C)C)[C@@H](C)O)C(C)C` [compound 104] ({C20 diacid-γGlu}-KCNTATCTVQRLAHQIYQFYDKDKDNVAPPTNVGSNG[Hyp]-NH2; disulfide 2-7) has an EC50 (hAMY3 receptor) of 0.018 nM and an EC50 (hAM1 receptor) greater than 5 µM.
